# Assay results reported in patent publication US8815935B2, “Inhibitors of protein prenyltransferases” (The Regents of the University of California, priority 2008, dated 2014).
# Legend:
# K562 cells = assay: Cell cycle profile by flow cytometry, K562; format: cell-based, human; conditions: 48 hours, FIG. 24A
# Description: K562 cells were treated with indicated concentrations (mM) of P3-E5 (ranging from […]) or GGTI-298 (ranging from […]) for 48 hours. Cell cycle profiles were monitored by flow cytometry. Percentages of cells in each phase of the cell cycle are indicated by different colors. Red: G0/G1 phase. Black: S phase. Gray: G2/M phase.
# BT474 = BT474 cell growth inhibition; format: cell-based, human; conditions: Homo sapiens, BT-474, 72 h; 3 days, CCK-8, vs DMSO; read-out: IC50, BT474 (Breast)
# Description: (§1) In FIG. 9-24 in vitro IC50 values for the GGTase I activity are reported. In Tables 7-15 in cell GI50 values for the growth inhibition of a variety of cancer cell lines (e.g., Jurkat, K562, MDA-MB-231, BT474, MCF7, MiaPaCa2, Aspc-1, Panc-1, Capan-2, CFpac-1, and MCF10a) are reported.
# (§2) Cell viability was determined by Cell Counting Kit-8 (CCK-8, Dojindo, Kumamoto, Japan) as described previously (31). Cell viability was calculated relative to the DMSO control. Cell cycle profile was analyzed by flow cytometry as described previously (32).
# Aspc-1 = Aspc-1 cell growth inhibition; format: cell-based, human; conditions: Homo sapiens, ASPC1, 144 h; 6 days, CCK-8, vs DMSO; read-out: IC50, AsPc-1 (Pancreas)
# Description: as §1, §2
# Panc-1 [1] = assay: Panc-1 cell growth inhibition; format: cell-based, human; conditions: Homo sapiens, PANC-1, 72 h; 3 days, CCK-8, vs DMSO; read-out: IC50, PANC-1 (Pancreas)
# Description: as §1
# Panc-1 cells (Pancreatic cancer cell line) and Jurkat cells (T-cell leukemia) were treated with 12.5 μM of P5-H6 or 12.5 μM of mP5-H6a for 72 hours. The cell number was counted as described in Example 5.
# as §2
# CFpac-1 = CFpac-1 cell growth inhibition; format: cell-based, human; conditions: Homo sapiens, CFPAC-1, 72 h; 3 days, CCK-8, vs DMSO; read-out: IC50, CFpac-1 (Pancreas)
# Description: as §1, §2
# Panc-1 [2] = assay: Cell cycle distribution by flow cytometry, PANC-1; format: cell-based, human; conditions: 10 μM, 48 hours
# Description: as §2
# [3] = tested on: H-Ras farnesylation in NIH3T3 cells; assay: H-Ras mobility shift immunoblot in NIH3T3 cells; format: cell-based; conditions: 48 hours
# Description: K562 cells were treated with modified compounds for 72 hours and then cell number was counted. IC50 values of cell viability relative to the DMSO were measured. […] Data represent the mean+/−S.D. of two measurements from two independent experiments. *, P<0.05 compared with the value for DMSO. […] Whole cell lysates from cells treated with DMSO, P5-H6, P61-A6, GGTI (GGTI-298), FTI (BMS-225975) or RabGGTI (P49-F6) for 48 hours were prepared and processed for immunoblot analysis using antibody against unprenylated form of Rap1 (C: upper panel), Total-Rap1 (C: middle panel), H-Ras (D: upper panel), Rab5b (E: upper panel) or actin (C, D, and E: lower panel). The immunoblots shown represent two independent experiments for each treatment.
# This was examined by using a farnesylated protein H-Ras.
IC50 (BT474) [µM],IC50 (Aspc-1) [µM],IC50 (Panc-1 [1]) [µM],Compound,cell cycle effect in K562 cells (K562 cells),IC50 (CFpac-1) [µM],"Percent G2/M, PANC-1 (Panc-1 [2]; DMSO 24.21) [%]","Percent G0/G1, PANC-1 (Panc-1 [2]; DMSO 42.08) [%]",mobility shift of H-Ras (protein farnesylation) [3]
–,–,–,Cc1ccccc1S(=O)(=O)N1[C@@H](c2cccc(Cl)c2)C(C(=O)O)=CC[C@H]1c1ccc(Cl)cc1 [P3-E5],induces G1 arrest,–,–,–,–
8.5,11.7,5.2,Cc1ccccc1S(=O)(=O)N1C(c2ccc(Cl)cc2)C(C(=O)NC(Cc2ccccc2)C(N)=O)=CC1C(C)(C)C (centres unmarked) [P61-A6],–,6.3,19.81,54.13,no such mobility shift
